The values that follow come from patent US12286401B2, “Small molecules that sensitize HIV-1 infected cells to antibody dependent cellular cytotoxicity” (THE TRUSTEES OF THE UNIVERSITY OF PENNSYLVANIA, priority 2018, dated 2025).

The structures appear in SMILES notation.

Series [1] can be described thus: Solubility in PBS. The class given is physicochemical. To be noted: Yes/NO.
Series [2] concerns CH58TF infected primary CD4+ T-cells. Description: HIV+ patient sera/plasma recognition of CH58TF infected primary CD4+ T-cells (flow cytometry cell-surface staining). The note with it: for fold induction at 50 µM: Human immunodeficiency virus 1, T-cell, read-out: Fold Over DMSO (patient sera, n = 3). The class given is cell-based, HIV-1. Here is the method: (§1) Cell-surface staining of primary CD4+ T cells from healthy HIV uninfected individuals or CEM-NKr cells is performed, as described in Prevost, “Influence of the Envelope gp120 Phe 43 Cavity on HIV-1 Sensitivity to Antibody-Dependent Cell-Mediated Cytotoxicity Responses,” 2017, J. Virol 91; Richard, “CD4 mimetics sensitize HIV-1-infected cells to ADCC,” 2015, Proc. Natl. Acad. Sci. USA, 112:E2687-2694; Richard, “Small CD4 Mimetics Prevent HIV-1 Uninfected Bystander CD4+ T Cell Killing Mediated by Antibody-dependent Cell-mediated Cytotoxicity,” 2016, EBioMedicine 3:122-134; Veillette, “The HIV-1 gp120 CD4-Bound Conformation Is Preferentially Targeted by Antibody-Dependent Cellular Cytotoxicity-Mediating Antibodies in Sera from HIV-1-Infected Individuals,” 2015, J. Virol., 89:545-551; Veillette, “Interaction with cellular CD4 exposes HIV-1 envelope epitopes targeted by antibody-dependent cell-mediated cytotoxicity,” 2014, J. Virol., 88:2633-2644; Richard, “Uninfected Bystander Cells Impact the Measurement of HIV-Specific Antibody-Dependent Cellular Cytotoxicity Responses,” 2018, MBio. 9(2): e00358-18; Richard, “BST-2 Expression Modulates Small CD4-Mimetic Sensitization of HIV-1-Infected Cells to Antibody-Dependent Cellular Cytotoxicity,” 2017, J. Virol. 91(11):e00219-17. Binding of HIV-1 infected cells by HIV+ sera (1:1000 dilution) or anti-Env Abs (such as 17b) is performed […] in vitro infection at 37° C. in presence of different concentrations of the MCG analogs or with equivalent volume of vehicle (DMSO). Cells infected with HIV-1 primary isolates are stained intracellularly for HIV-1 p24 using the Cytofix/Cytoperm Fixation/Permeabilization Kit (BD Biosciences, Mississauga, ON, Canada) and then fluorescent anti-p24 mAb (PE-anti-p24, clone KC57; Beckman Coulter/Immunotech, Hialeah, FL) (1:100 final concentration). The percentage of infected cells (p24^+ or GFP+ cells) is determined by gating the living cell population based on the viability dye staining. Samples are analyzed on an LSRII cytometer (BD Biosciences, Mississauga, ON, Canada) and data analysis is performed using FlowJo vX0.7 (Tree Star, Ashland, OR, USA).
HIV+ Patient Sera (n=3) Recognition of CH58TF Infected Primary CD4+ T-Cells
Staining with patient sera and 50 μM of compounds given as a fold change over DMSO (vehicle).
(§2) Briefly, Primary CD4 T cells isolated from PBMC were infected with HIV-1CH58TF for 48 hours. For cell surface staining, 5 μg/ml 17b (FIG. 15A) or 1:1000 diluted HIV+ plasma (n=15) (FIG. 15B) were used in the presence of the different MCG analogs (50 μM), (+)-BNM-III-170 or with an equivalent volume of vehicle (DMSO). An Alexa Fluor 647-conjugated anti-human IgG secondary Ab was then used for fluorescent labeling. For ADCC (FIG. 15C), infected cells were used as target cells in a FACS-based ADCC assay that measures the killing of infected (p24+ cells). See, Madani, 2016, J. Virol., 90:5031-5046. The assay determines susceptibility to ADCC mediated by a 1/1,000 dilution of plasma from 15 HIV-1-infected individuals in the presence of the different MCG analogs (50 μM), (+)-BNM-III-170 (50 μM) or with an equivalent volume of vehicle (DMSO). Correlation between cell-surface staining with HIV+ plasma and ADCC was calculated using the Spearman rank correlation (FIG. 15D).

The test system of series [3] is HIV-1JR-FL EnvΔCT expressed at the surface of HOS cells. Description: Cell-based ELISA (CBE), 17b readout. To be noted: MCG analogs 50 μM; BNM-III-170 5 μM; 2G12 and DMSO normalized. Here is the method: Detection of trimeric HIV-1 Env at the surface of HOS cells was performed by cell-based ELISA, as described in Desormeaux, “The highly conserved layer-3 component of the HIV-1 gp120 inner domain is critical for CD4-required conformational transitions,” J. Virol. 87:2549-2562; Alsahafi, “Effects of the I559P gp41 change on the conformation and function of the human immunodeficiency virus (HIV-1) membrane envelope glycoprotein trimer,” 2015, PLoS One 10:e0122111; and Veillette, “Conformational evaluation of HIV-1 trimeric envelope glycoproteins using a cell-based ELISA assay,” 2014, J. Vis. Exp., 91:51995. To enhance cell-surface expression of HIV-1 EnvRF a stop codon was introduced to replace the codon for Gly 711, truncating the cytoplasmic tail (ACT). Briefly, HOS cells were seeded in T-75 flasks (3×10^6 cells per flask) and transfected the next day with 22.5 μg of Env-expressing plasmids (wild-type and mutants S375W, S375T, H66A, A582T/L587A, etc) using the standard polyethylenimine (PEI, Polyscience Inc, PA, USA) transfection method. Twenty-four hours after transfection, cells were plated in 384-wells plates (2×10^4 cells per well). One day later, cells were washed twice with blocking buffer (10 mg/mL non-fat dry milk, 1.8 mM CaCl2), 1 mM MgCl2, 25 mM Tris, pH 7.5 and 140 mM NaCl) and then incubated for 30 minutes at room temperature with different concentrations of MCG analogs or equivalent volume of vehicle (DMSO). Cells were then incubated for an additional 1 h at room temperature with anti-HIV-1 Env monoclonal antibodies recognizing CD4-induced gp120 epitopes (17b, A32), CD4-binding site gp120 epitopes (VRC03, VRC01, F105, and b12), gp120 V3 glycans (19b, PGT126, PGT122, and 10.1074), gp120 outer domain (2G12), and gp120-gp41 interface (PGT151 and VRC34) epitopes. All ligands were diluted in blocking buffer. A horseradish peroxidase-conjugated antibody specific for the Fc region of human or mouse IgG (Pierce) was then incubated with the samples for 45 minutes at room temperature. For all conditions, cells were washed 5 times with blocking buffer and 5 times with washing buffer (1.8 mM CaCl2), 1 mM MgCl2, 25 mM Tris, pH 7.5 and 140 mM NaCl). HRP enzyme activity was determined after the addition of 20 μl per well of a 1:1 mix of Western Lightning oxidizing and luminol reagents (Perkin Elmer Life Sciences). Light emission was measured with an LB 941 TriStar luminometer (Berthold Technologies) and analysis with Graph Pad software.
The data of Table 2 is given as the fold over BNM-III-170 (5 μM) of Cell-Based ELISA with MCG Analogs (50 μM)—17b readout, 2G12 and DMSO normalized.
To identify molecules able to expose vulnerable Env epitopes, a cell-based ELISA (CBE) assay was adapted, capable of measuring conformational changes of membrane-bound trimeric Env as described in Veillette, 2014, J. Vis. Exp. doi:10.3791/51995:51995; Haim, 2011, PLoS Pathog 7:e1002101, into a high-throughput screening (HTS) platform (FIG. 10A). Briefly, the cytoplasmic-tail deleted HIV-1JR-FL Tier-2/3 Env was expressed on the surface of HOS cells in a 384-well-plate format. The cytoplasmic tail of Env was deleted to enhance Env expression at the cell surface and therefore enhance the sensitivity of the CBE assay. See, Veilette and Haim, 2009, PLoS Pathog 5:e100036. Small molecules or, as a positive control, soluble (sCD4) were added to expose the HIV-1JR-FL EnvΔCT epitope that can be recognized by the CD4i antibody 17b. See, Wyatt, 1995, J. Virol. 69:5723-5733; Rizzuto, 1998, Science 280:1949-1953.
17b binding was detected by a horseradish peroxidase-conjugated (HRP) second antibody, and HRP enzyme activity was measured by Western Lightning oxidizing and luminal reagents. 17b binding in the presence of sCD4 was set as the control (FIG. 10B, blue dots), small molecules that enhanced 17b binding above 25% of the one induced by sCD4 were retested in quadruplicate and only one molecule (UM0059920) was deemed a true positive (FIG. 10B, red dots). […]

For series [4], the system named is CH58TF infected primary CD4+ T-cells. Description: Recognition of HIV-1 infected cells by 17b (flow cytometry cell-surface staining). The class given is cell-based. The note with it: for fold induction at 50 µM: Human immunodeficiency virus 1, T-cell, read-out: Fold Over DMSO (17b, n = 1). On the procedure:
as §1, §2

As for `CCS(=O)(=O)N1CCC(C(=O)Nc2ccc(Cl)c(F)c2)C1` (stereo not drawn) [MCG-III-157-A02], the “Solubility (in PBS)” value in series [1] is recorded as “Yes”. The fold induction at 50 µM in series [2] stood at 1.64. Moreover, the “Fold over BNM-III-170 - 17b binding (±0.05)” value (from here on “Fold … (±0.05)”) in series [3] was 0.27 fold.

As to `CCS(=O)(=O)N1CC(C(=O)Nc2ccc(Cl)c(F)c2)Cc2ccccc21` (stereo not drawn) [MCG-III-214-A02], in series [1], the “Solubility (in PBS)” value was “Yes**”. The fold induction at 50 µM in series [2] came to 3.25; in series [4], 5.16.

Consider `CCS(=O)(=O)N1CCCC(NC(=O)c2ccc(Cl)c(F)c2)C1` (stereo not drawn) [MCG-III-157-C02], for which, in series [1], the “Solubility (in PBS)” value was “Yes”. For the same compound, the fold induction at 50 µM in series [2] came to 1.05. For the same compound, in series [3], the “Fold … (±0.05)” value was determined as 0.07 fold.

As for `CS(=O)(=O)N1CCC(C(=O)Nc2ccc(Cl)c(F)c2)C1` (stereo not drawn) [MCG-III-157-A01], the “Solubility (in PBS)” value in series [1] is recorded as “Yes”. In series [2], the fold induction at 50 µM was determined as 1.85. The “Fold … (±0.05)” value in series [3] turned out to be 0.36 fold.

In the case of `Cn1cnc(S(=O)(=O)N2CCC(C(=O)Nc3ccc(Cl)c(F)c3)C2)c1` (stereo not drawn) [MCG-III-157-A04], the “Solubility (in PBS)” value in series [1] is “Yes”. Besides, in series [2], the fold induction at 50 µM is 1.28. Also, the “Fold … (±0.05)” value in series [3] was determined as 0.34 fold.

Take `Cn1cnc(S(=O)(=O)N2CCCC(NC(=O)c3ccc(Cl)c(F)c3)C2)c1` (stereo not drawn) [MCG-III-157-C04]: the “Solubility (in PBS)” value in series [1] was “Yes”. Further, the fold induction at 50 µM in series [2] stood at 0.897. Moreover, the “Fold … (±0.05)” value in series [3] is 0.04 fold.

Take `O=C(Nc1ccc(Cl)c(F)c1)C1CNc2ccccc2C1` (stereo not drawn) [MCG-III-209]: the “Solubility (in PBS)” value in series [1] is reported as “Yes”. The fold induction at 50 µM amounted to 1.82 in series [2] and 3.23 in series [4].

On to `O=C(Nc1ccc(Cl)c(F)c1)C1CNCCO1` (stereo not drawn) [MCG-III-196], for which, in series [1], the “Solubility (in PBS)” value was “Yes”. Also, the “Fold Over DMSO (patient sera, n = 3)” value in series [2] (50 μM of compounds, staining with HIV+ patient sera, CH58TF infected primary CD4+ T-cells) is 1.499 fold. Further, the “Fold Over DMSO (17b, n = 1)” value in series [4] (50 μM of compounds, 17b staining) amounted to 2.595 fold.

As to `CCN1CC(C(=O)Nc2ccc(Cl)c(F)c2)Cc2ccccc21` (stereo not drawn) [MCG-III-201], the “Solubility (in PBS)” value in series [1] is reported as “Yes”. The fold induction at 50 µM was found to be 0.989 in series [2] and 1.39 in series [4].

On to `O=C(Nc1ccc(Cl)c(F)c1)C1CN(S(=O)(=O)c2ccccc2)CCO1` (stereo not drawn) [MCG-III-211-A03], for which the results for the fold induction at 50 µM in series [2] and in series [4] were 1.7 and 2.64, respectively. The “Fold … (±0.05)” value in series [3] is listed as 0.28 fold.

Regarding `O=C(Oc1ccc(Cl)c(F)c1)[C@H]1CCCN(S(=O)(=O)c2ccccc2)C1` [(S)-MCG-III-213-A03], the values for the fold induction at 50 µM in series [2] and in series [4] were 1.08 and 0.928, respectively. In addition, the “Fold … (±0.05)” value in series [3] was determined as 0.05 fold.

As for `O=C(Nc1ccc(F)c(F)c1)[C@H]1CCCN(S(=O)(=O)c2ccccc2)C1` [(S)-MCG-III-085-D04], the fold induction at 50 µM in series [2] worked out at 1.84; in series [4], 3.15. In addition, the “Fold … (±0.05)” value in series [3] is given as 0.28 fold.

Consider `O=C(Nc1ccc(F)c(Cl)c1)[C@H]1CCCN(S(=O)(=O)c2ccccc2)C1` [(S)-MCG-III-085-D02], for which the fold induction at 50 µM in series [2] came out at 1.37; in series [4], 2.54. Moreover, the “Fold … (±0.05)” value in series [3] came to 0.18 fold.

`CS(=O)(=O)N1CCCC(C(=O)Nc2ccc(Cl)c(F)c2)C1` (stereo not drawn) [MCG-III-157-B01]: in series [1], the “Solubility (in PBS)” value is recorded as “Yes”. Also, the fold induction at 50 µM in series [2] stood at 1.48. The “Fold … (±0.05)” value in series [3] was found to be 0.42 fold.

Consider `O=C(Nc1ccc(Cl)c(F)c1)[C@H]1CCCN(S(=O)(=O)c2ccccc2)C1` [(S)-MCG-III-085-D01], for which the fold induction at 50 µM in series [2] came to 5.95; in series [4] it was 6.4. Moreover, the “Fold … (±0.05)” value in series [3] is listed as 0.45 fold.

With `O=C(Nc1ccc(Cl)c(F)c1)[C@H]1CCCN(S(=O)(=O)C(F)(F)F)C1` [(S)-MCG-III-132], the “Solubility (in PBS)” value in series [1] was “Yes”. The fold induction at 50 µM in series [2] amounted to 1.58. Further, the “Fold … (±0.05)” value in series [3] was 0.27 fold.
